Counter-ions that a name gives are not always drawn.
These molecules were tested against T1, human recombinant DPP-IV (Homo sapiens, UniProt P27487) (assay: Inhibition of human recombinant DPP-IV (Gly-Pro-AMC hydrolysis, fluorometric)). Conditions: compound 10 nM; relative to vehicle controls.
T1 construct: purchased R&D Systems, USA (or produced in-house)
Type: biochemical
Procedure: Inhibition of Human Recombinant DPP-IV
The proteolytic activity of human recombinant DPP-IV was determined by following the hydrolysis of Gly-Pro-7-amino-4-methylcoumarin (Gly-Pro-AMC) and the fluorometric quantitation of the liberated AMC. Assays were routinely carried out in 96-well flat-bottom black microwell plates. The reaction mixture (100 μl) contained 10 ng of human recombinant DPP-IV enzyme (produced in-house or procured from R&D Systems, USA) in the assay buffer (25 mM Tris-HCl, pH 7.4, 140 mM NaCl, 10 mM KCl and 0.1 mg/ml BSA) and 50 μM Gly-Pro-AMC. After incubation of assay plates at 30° C. for 30 min, the hydrolysis of Gly-Pro-AMC was monitored in a fluorescence microplate reader (Molecular Devices SpectraMax M5), with excitation and emission wavelengths set at 360 nm and 460 nm, respectively.
The inhibition of DPP-IV activity by test compounds was routinely performed by preincubating the enzyme with test compound (10 and 100 nM for primary screening and 8 concentrations from 0.1 to 1000 nM for the dose-response study) or vehicle (0.01% DMSO) for 15 min at 30° C., in a total volume of 90 μl. Test compounds were dissolved in DMSO at a concentration of 10 mM and serially diluted further in assay buffer. The enzyme reaction was initiated by the addition of Gly-Pro-AMC, followed by incubation of assay plates for 30 min at 30° C. and the liberated AMC was measured as described above. A known inhibitor of DPP-IV (positive control) was always included in the assay. Test compounds at various concentrations were always evaluated in duplicate, along with substrate blanks, vehicle controls and positive controls.
The results are expressed as percent inhibition of the enzyme activity relative to vehicle controls. Dose-response studies were conducted for those compounds exerting ≧50% inhibition of activity at 10 nM in primary screening. IC50, defined as the inhibitor concentration which caused a 50% decrease of the activity under assay conditions, was computed using GraphPad Prism software, version 5.0.
The DPP-IV inhibition data (expressed either as IC50 in nanomolar or percent inhibition at a particular compound concentration) is presented in Table 1.

T1 sequence (P27487 whole entry): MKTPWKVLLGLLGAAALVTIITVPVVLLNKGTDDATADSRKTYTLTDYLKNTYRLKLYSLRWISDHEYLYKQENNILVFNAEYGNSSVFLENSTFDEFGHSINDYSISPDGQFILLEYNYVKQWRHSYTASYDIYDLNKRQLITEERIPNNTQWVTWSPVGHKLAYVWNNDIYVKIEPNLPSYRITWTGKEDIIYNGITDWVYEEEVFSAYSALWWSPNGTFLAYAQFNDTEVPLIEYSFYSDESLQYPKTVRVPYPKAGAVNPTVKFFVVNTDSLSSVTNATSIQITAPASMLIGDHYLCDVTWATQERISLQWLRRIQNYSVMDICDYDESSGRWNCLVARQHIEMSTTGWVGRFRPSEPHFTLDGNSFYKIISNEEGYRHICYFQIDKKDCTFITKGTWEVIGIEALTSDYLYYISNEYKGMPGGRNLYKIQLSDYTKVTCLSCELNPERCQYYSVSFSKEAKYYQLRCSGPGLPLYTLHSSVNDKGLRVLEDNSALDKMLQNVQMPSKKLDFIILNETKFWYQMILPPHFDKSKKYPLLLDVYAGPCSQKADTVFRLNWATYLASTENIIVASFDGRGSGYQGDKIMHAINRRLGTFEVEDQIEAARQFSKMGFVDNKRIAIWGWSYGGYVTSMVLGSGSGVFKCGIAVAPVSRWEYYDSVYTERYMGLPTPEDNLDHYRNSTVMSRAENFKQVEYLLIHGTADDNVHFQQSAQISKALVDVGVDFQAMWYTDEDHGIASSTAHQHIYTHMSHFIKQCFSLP

| SMILES | % inhibition at 10 nM [% inhibition at 10 nM] |
| --- | --- |
| N[C@H](C(=O)N1CCC[C@H]1CO)C1CC2CCC(C1)N2C(=O)c1ccc2c(c1)OCO2.O=C(O)C(F)(F)F (stereo partly drawn) [Compound 14, (2S)-{(2S)-1-[(2S)-2-Amino-2-(8-(benzo[1,3]dioxole-5-carbonyl)-8-aza-bicyclo[3.2.1]-oct-3-yl)-exo-acetyl]-pyrrolidin-2-yl}methanol trifluoroacetic acid salt] | 12 |
| N#C[C@H]1C[C@H]2C[C@H]2N1C(=O)[C@@H](N)C1CC2CCC(C1)N2C(=O)c1ccnc(F)c1.O=C(O)C(F)(F)F (stereo partly drawn) [Compound 29, (1R,3R,5R)-2-{(2S)-2-Amino-2-[8-(2-fluoropyridine-4-carbonyl)-8-aza-bicyclo[3.2.1]oct-3-yl]-exo-ethanoyl}-2-azabicyclo[3.1.0]hexane-3-carbonitrile trifluoroacetic acid salt] | 0 |

Same assay, conditions: compound 10 nM; relative to vehicle controls; read-out: % inhibition at 10 nM

| SMILES | inhibition at 0.01 µM [%] |
| --- | --- |
| N#C[C@H]1CC[C@@H](C(=O)OCc2ccccc2)N1C(=O)[C@@H](N)C1CC2CCC(C1)N2C(=O)c1ccc(C(F)(F)F)cc1 (stereo partly drawn) [Compound 18, Benzyl-(2S,5R)-1-{(2S)-2-amino-2-[8-(4-trifluoromethyl-benzoyl)-8-aza-bicyclo[3.2.1]-oct-3-yl]-exo-ethanoyl}-5-cyano pyrrolidin-2-carboxylate trifluoroacetic acid salt] | 1.11 |

Same assay, conditions: compound 1000 nM; relative to vehicle controls

| SMILES | % inhibition at 1000 nM [% inhibition at 1000 nM] |
| --- | --- |
| NC(=O)[C@@H]1CCCN1C(=O)[C@@H](N)C1CC2CCC(C1)N2C(=O)c1ccc(C(F)(F)F)cc1.O=C(O)C(F)(F)F (stereo partly drawn) [Compound 12, (2S)-1-{(2S)-2-amino-2-[8-(4-trifluoromethyl-benzoyl)-8-aza-bicyclo[3.2.1]-oct-3-yl]-exo-ethanoyl}-pyrrolidin-2-carboxamide trifluoroacetic acid salt] | 30 |

Same assay, conditions: human recombinant DPP-IV, 50 μM Gly-Pro-AMC, 30 min at 30° C.

| SMILES | IC50 [nM] |
| --- | --- |
| N#C[C@@H]1CCCN1C(=O)[C@@H](N)C1CC2CCC(C1)N2C(=O)C12CC3CC(CC(C3)C1)C2 (stereo partly drawn) [Compound 3, (2S)-1-{(2S)-2-Amino-2-[8-(adamantane-1-carbonyl)-8-aza-bicyclo[3.2.1]oct-3-yl]-exo-ethanoyl}-pyrrolidin-2-carbonitrile trifluoroacetic acid salt] | 6.67 |
| N#C[C@@H]1CCCN1C(=O)[C@@H](N)C1CC2CCC(C1)N2C(=O)c1ccncc1 (stereo partly drawn) [Compound 4, (2S)-1-{(2S)-2-Amino-2-[8-(pyridine-4-carbonyl)-8-aza-bicyclo[3.2.1]oct-3-yl]-exo-ethanoyl}-pyrrolidin-2-carbonitrile trifluoroacetic acid salt] | 1.03 |
| N#Cc1ccc(C(=O)N2C3CCC2CC([C@H](N)C(=O)N2CCC[C@H]2C#N)C3)cc1 (stereo partly drawn) [Compound 5, (2S)-1-{(2S)-2-Amino-2-[8-(4-cyano-benzoyl)-8-aza-bicyclo[3.2.1]oct-3-yl]-exo-ethanoyl}-pyrrolidin-2-carbonitrile trifluoroacetic acid salt] | 1.52 |
| N#C[C@@H]1CCCN1C(=O)[C@@H](N)C1CC2CCC(C1)N2C(=O)c1cc(F)ccc1F (stereo partly drawn) [Compound 6, (2S)-1-{(2S)-2-Amino-2-[8-(2,5-difluorobenzoyl)-8-aza-bicyclo[3.2.1]oct-3-yl]-exo-ethanoyl}-pyrrolidin-2-carbonitrile trifluoroacetic acid salt] | 2.3 |
| N#C[C@@H]1CCCN1C(=O)[C@@H](N)C1CC2CCC(C1)N2C(=O)c1ccnc(F)c1 (stereo partly drawn) [Compound 7, (2S)-1-{(2S)-2-Amino-2-[8-(2-fluoro-pyridine-4-carbonyl)-8-aza-bicyclo[3.2.1]oct-3-yl]-exo-ethanoyl}-pyrrolidin-2-carbonitrile trifluoroacetic acid salt] | 1.9 |
| N#C[C@@H]1CCCN1C(=O)[C@@H](N)C1CC2CCC(C1)N2 (stereo partly drawn) [Compound 8, (2S)-1-{(2S)-2-Amino-2-[8-aza-bicyclo[3.2.1]oct-3-yl]-exo-ethanoyl}-pyrrolidin-2-carbonitrile trifluoro acetic acid salt] | 6.84 |
| N#C[C@@H]1CCCN1C(=O)[C@@H](N)C1CC2CCC(C1)N2Cc1cc(F)c(F)cc1F (stereo partly drawn) [Compound 9, (2S)-1-{(2S)-2-Amino-2-[8-(2,4,5-trifluorobenzyl)-8-aza-bicyclo[3.2.1]oct-3-yl]-exo-ethanoyl}-pyrrolidin-2-carbonitrile trifluoroacetic acid salt] | 3.13 |
| N#C[C@@H]1C[C@H](F)CN1C(=O)[C@@H](N)C1CC2CCC(C1)N2C(=O)c1cc(F)c(F)cc1F (stereo partly drawn) [Compound 16, (2S,4S)-1-{(2S)-2-Amino-2-[8-(2,4,5-trifluorobenzoyl)-8-aza-bicyclo[3.2.1]oct-3-yl]-exo-ethanoyl}-4-fluoro-pyrrolidin-2-carbonitrile trifluoroacetic acid salt] | 2.9 |
| N#C[C@@H]1C[C@H](F)CN1C(=O)[C@@H](N)C1CC2CCC(C1)N2C(=O)c1cc(F)ccc1F (stereo partly drawn) [Compound 17, (2S,4S)-1-{(2S)-2-Amino-2-[8-(2,5-difluorobenzoyl)-8-aza-bicyclo[3.2.1]oct-3-yl]-exo-ethanoyl}-4-fluoro-pyrrolidin-2-carbonitrile trifluoroacetic acid salt] | 2.4 |
| N#C[C@@H]1C[C@H](F)CN1C(=O)[C@@H](N)C1CC2CCC(C1)N2Cc1cc(F)c(F)cc1F (stereo partly drawn) [Compound 19, (2S,4S)-1-{(2S)-2-Amino-2-[8-(2,4,5-trifluorobenzyl)-8-aza-bicyclo[3.2.1]oct-3-yl]-exo-ethanoyl}-4-fluoro-pyrrolidin-2-carbonitrile trifluoroacetic acid salt] | 6.25 |
| N#C[C@H]1CSCN1C(=O)[C@@H](N)C1CC2CCC(C1)N2C(=O)c1ccc(C(F)(F)F)cc1 (stereo partly drawn) [Compound 20, (4S)-3-{(2S)-2-Amino-2-[8-(4-trifluoromethyl-benzoyl)-8-aza-bicyclo[3.2.1]oct-3-yl]-exo-ethanoyl}-thiazolidin-4-carbonitrile trifluoroacetetic acid salt] | 2.8 |
| N[C@H](C(=O)N1CCSC1)C1CC2CCC(C1)N2C(=O)c1ccc(C(F)(F)F)cc1 (stereo partly drawn) [Compound 21, 3-{(2S)-2-Amino-2-[8-(4-trifluoromethyl-benzoyl)-8-aza-bicyclo[3.2.1]-oct-3-yl]-exo-ethanoyl}-1,3-thiazolidin trifluoroacetic acid salt] | 17.9 |
| N#C[C@@H]1CCCN1C(=O)[C@@H](N)C1CC2CCC(C1)N2C(=O)Nc1ccc(C(F)(F)F)cc1 (stereo partly drawn) [Compound 22, (2S)-1-{(2S)-2-Amino-2-[8-(4-trifluoromethylphenylcarbamoyl)-8-aza-bicyclo[3.2.1]oct-3-yl]exo-ethanoyl}-pyrrolidin-2-carbonitrile trifluoroacetic acid salt] | 2.83 |
| N#C[C@@H]1C[C@@H]2C[C@@H]2N1C(=O)[C@@H](N)C1CC2CCC(C1)N2C(=O)c1cc(F)c(F)cc1F (stereo partly drawn) [Compound 23, (1S,3S,5S)-2-{(2S)-2-Amino-2-[8-(2,4,5-trifluorobenzoyl)-8-aza-bicyclo[3.2.1]oct-3-yl]-exo-ethanoyl}-2-azabicyclo[3.1.0]hexane-3-carbonitrile trifluoroacetic acid salt] | 9.75 |
| N#Cc1ccc(C(=O)N2C3CCC2CC([C@H](N)C(=O)N2[C@H](C#N)C[C@@H]4C[C@@H]42)C3)cc1 (stereo partly drawn) [Compound 24, (1S,3S,5S)-2-{(2S)-2-Amino-2-[8-(4-cyanobenzoyl)-8-aza-bicyclo[3.2.1]oct-3-yl]-exo-ethanoyl}-2-azabicyclo[3.1.0]hexane-3-carbonitrile trifluoroacetic acid salt] | 3.52 |
| N#C[C@@H]1C[C@@H]2C[C@@H]2N1C(=O)[C@@H](N)C1CC2CCC(C1)N2C(=O)c1ccc(C(F)(F)F)cc1 (stereo partly drawn) [Compound 26, (1S,3S,5S)-2-{(2S)-2-Amino-2-[8-(4-trifluoromethylbenzoyl)-8-aza-bicyclo[3.2.1]oct-3-yl]-exo-ethanoyl}-2-azabicyclo[3.1.0]hexane-3-carbonitrile trifluoroacetic acid salt] | 8.9 |
| N#C[C@@H]1C[C@@H]2C[C@@H]2N1C(=O)[C@@H](N)C1CC2CCC(C1)N2C(=O)c1cc(F)ccc1F (stereo partly drawn) [Compound 27, (1S,3S,5S)-2-{(2S)-2-Amino-2-[8-(2,5-difluorobenzoyl)-8-aza-bicyclo[3.2.1]oct-3-yl]-exo-ethanoyl}-2-azabicyclo[3.1.0]hexane-3-carbonitrile trifluoroacetic acid salt] | 17.2 |

Same assay, conditions: read-out: % inhibition at 1000 nM

| SMILES | inhibition at 1 µM [%] |
| --- | --- |
| N[C@H](C(=O)N1CCC[C@H]1C(=O)O)C1CC2CCC(C1)N2C(=O)c1ccc(C(F)(F)F)cc1 (stereo partly drawn) [Compound 11, (2S)-1-{(2S)-2-amino-2-[8-(4-trifluoromethyl-benzoyl)-8-aza-bicyclo[3.2.1]-oct-3-yl]-exo-ethanoyl}-pyrrolidin-2-carboxylic acid trifluoroacetic acid salt] | 29 |
